Laboratory results published in patent US12565490B2, “Inhibitors of Receptor Interacting Protein Kinase I for the treatment of disease” (Board of Regents, The University of Texas System, priority 2020, dated 2026).

Tested on: human monocytic cell line U937
Assay: Human U937 cellular necroptosis assay
Format: cell-based
Conditions: U-937; U937 cells stimulated with 25 ng/mL human TNFalpha and 25 μM z-VAD-FMK; 22 hr; viability by Cell Titer-Glo 2.0; read-out: hU937 IC50
How it was run: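 U937 cells (5000/well) driven to necroptosis by 25 ng/mL human TNFalpha plus 25 μM z-VAD-FMK alongside 1:3-diluted compounds, 22 hr at 37° C, 5% CO2. Viability by CellTiter-Glo luminescence; IC50 from four-parameter logistic fit.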

CN1C(=O)[C@@H](NC(=O)c2ncc(Cl)c(-c3cccc(Cl)c3)n2)COc2cc(F)cnc21 [Example 81, (S)-5-chloro-4-(3-chlorophenyl)-N-(8-fluoro-5-methyl-4-oxo-2,3,4,5-tetrahydropyrido[3,2-b]-[1,4]oxazepin-3-yl)pyrimidine-2-carboxamide]
IC50: 29.6 nM

CN1C(=O)[C@@H](NC(=O)c2ncc(Cl)c(-c3ccc(Cl)cc3)n2)COc2cc(F)cnc21 [Example 82, (S)-5-chloro-4-(4-chlorophenyl)-N-(8-fluoro-5-methyl-4-oxo-2,3,4,5-tetrahydropyrido[3,2-b]-[1,4]oxazepin-3-yl)pyrimidine-2-carboxamide]
IC50: 13.6 nM

Cc1cccc(-c2nc(C(=O)N[C@H]3COc4cc(F)cnc4N(C)C3=O)ncc2Cl)c1 [Example 83, (S)-5-chloro-N-(8-fluoro-5-methyl-4-oxo-2,3,4,5-tetrahydropyrido[3,2-b]-[1,4]oxazepin-3-yl)-4-(m-tolyl)-pyrimidine-2-carboxamide]
IC50: 15.1 nM

CN1C(=O)[C@@H](NC(=O)c2ncc(Cl)c(-c3cccc(C#N)c3)n2)COc2cc(F)cnc21 [Example 84, (S)-5-chloro-4-(3-cyanophenyl)-N-(8-fluoro-5-methyl-4-oxo-2,3,4,5-tetrahydropyrido[3,2-b]-[1,4]oxazepin-3-yl)pyrimidine-2-carboxamide]
IC50: 33.5 nM

CN1C(=O)[C@@H](NC(=O)c2ncc(Cl)c(-c3ncccc3F)n2)COc2cc(F)cnc21 [Example 85, (S)-5-chloro-N-(8-fluoro-5-methyl-4-oxo-2,3,4,5-tetrahydropyrido[3,2-b]-[1,4]oxazepin-3-yl)-4-(3-fluoropyridin-2-yl)pyrimidine-2-carboxamide]
IC50: 611 nM

Cc1cnc(C(=O)N[C@H]2COc3cc(F)cnc3N(C)C2=O)nc1C12CCC(CC1)CC2 [Example 86, (S)-4-(bicyclo[2.2.2]octan-1-yl)-N-(8-fluoro-5-methyl-4-oxo-2,3,4,5-tetrahydro-pyrido[3,2-b][1,4]oxazepin-3-yl)-5-methylpyrimidine-2-carboxamide]
IC50: 67.5 nM

Cc1cnc(C(=O)N[C@H]2COc3cc(F)cnc3N(C)C2=O)nc1C1CCOCC1 [Example 87, (S)-N-(8-fluoro-5-methyl-4-oxo-2,3,4,5-tetrahydro-pyrido[3,2-b][1,4]oxazepin-3-yl)-5-methyl-4-(tetrahydro-2H-pyran-4-yl)pyrimidine-2-carboxamide]
IC50: 157 nM

Cc1cnc(C(=O)N[C@H]2COc3cc(F)cnc3N(C)C2=O)nc1-c1ccccc1F [Example 88, (S)-N-(8-fluoro-5-methyl-4-oxo-2,3,4,5-tetrahydro-pyrido[3,2-b][1,4]oxazepin-3-yl)-4-(2-fluorophenyl)-5-methylpyrimidine-2-carboxamide]
IC50: 13.7 nM

Cc1cc(F)ccc1-c1ccnc(C(=O)N[C@H]2COc3cc(Cl)cnc3N(C)C2=O)n1 [Example 89, (S)-N-(8-chloro-5-methyl-4-oxo-2,3,4,5-tetrahydro-pyrido[3,2-b][1,4]oxazepin-3-yl)-4-(4-fluoro-2-methylphenyl)pyrimidine-2-carboxamide]
IC50: 136 nM

Cc1cc(F)cc(F)c1-c1ccnc(C(=O)N[C@H]2COc3cc(Cl)cnc3N(C)C2=O)n1 [Example 90, (S)-N-(8-chloro-5-methyl-4-oxo-2,3,4,5-tetrahydro-pyrido[3,2-b][1,4]oxazepin-3-yl)-4-(2,4-difluoro-6-methylphenyl)pyrimidine-2-carboxamide]
IC50: 83.5 nM

CN1C(=O)[C@@H](NC(=O)c2ncc(F)c(-c3ccc(F)cc3)n2)COc2cc(Cl)cnc21 [Example 91, (S)-N-(8-chloro-5-methyl-4-oxo-2,3,4,5-tetrahydro-pyrido[3,2-b][1,4]oxazepin-3-yl)-5-fluoro-4-(4-fluorophenyl)-pyrimidine-2-carboxamide]
IC50: 33.2 nM

Cc1cc(F)ccc1-c1nc(C(=O)N[C@H]2COc3cc(Cl)cnc3N(C)C2=O)ncc1F [Example 92, (S)-N-(8-chloro-5-methyl-4-oxo-2,3,4,5-tetrahydro-pyrido[3,2-b][1,4]oxazepin-3-yl)-5-fluoro-4-(4-fluoro-2-methylphenyl)pyrimidine-2-carboxamide]
IC50: 15.2 nM

CN1C(=O)[C@@H](NC(=O)c2ncc(Cl)c(-c3ccccc3)n2)COc2cc(Cl)cnc21 [Example 93, (S)-5-chloro-N-(8-chloro-5-methyl-4-oxo-2,3,4,5-tetrahydropyrido[3,2-b]-[1,4]oxazepin-3-yl)-4-phenylpyrimidine-2-carboxamide]
IC50: 6.23 nM

CN1C(=O)[C@@H](NC(=O)c2ncc(Cl)c(-c3ccccc3F)n2)COc2cc(Cl)cnc21 [Example 94, (S)-5-chloro-N-(8-chloro-5-methyl-4-oxo-2,3,4,5-tetrahydropyrido[3,2-b]-[1,4]oxazepin-3-yl)-4-(2-fluorophenyl)pyrimidine-2-carboxamide]
IC50: 13.5 nM

CN1C(=O)[C@@H](NC(=O)c2ncc(Cl)c(-c3cccc(F)c3F)n2)COc2cc(Cl)cnc21 [Example 95, (S)-5-chloro-N-(8-chloro-5-methyl-4-oxo-2,3,4,5-tetrahydropyrido[3,2-b]-[1,4]oxazepin-3-yl)-4-(2,3-difluorophenyl)pyrimidine-2-carboxamide]
IC50: 15.2 nM

CN1C(=O)[C@@H](NC(=O)c2ncc(Cl)c(-c3ccc(F)cc3F)n2)COc2cc(Cl)cnc21 [Example 96, (S)-5-chloro-N-(8-chloro-5-methyl-4-oxo-2,3,4,5-tetrahydropyrido[3,2-b]-[1,4]oxazepin-3-yl)-4-(2,4-difluorophenyl)pyrimidine-2-carboxamide]
IC50: 8.33 nM

CN1C(=O)[C@@H](NC(=O)c2ncc(Cl)c(-c3ccc(F)c(F)c3)n2)COc2cc(Cl)cnc21 [Example 97, (S)-5-chloro-N-(8-chloro-5-methyl-4-oxo-2,3,4,5-tetrahydropyrido[3,2-b]-[1,4]oxazepin-3-yl)-4-(3,4-difluorophenyl)pyrimidine-2-carboxamide]
IC50: 11 nM

CN1C(=O)[C@@H](NC(=O)c2ncc(Cl)c(-c3cc(F)ccc3F)n2)COc2cc(Cl)cnc21 [Example 98, (S)-5-chloro-N-(8-chloro-5-methyl-4-oxo-2,3,4,5-tetrahydropyrido[3,2-b]-[1,4]oxazepin-3-yl)-4-(2,5-difluorophenyl)pyrimidine-2-carboxamide]
IC50: 7.25 nM

CN1C(=O)[C@@H](NC(=O)c2ncc(Cl)c(-c3cc(F)cc(F)c3)n2)COc2cc(Cl)cnc21 [Example 99, (S)-5-chloro-N-(8-chloro-5-methyl-4-oxo-2,3,4,5-tetrahydropyrido [3,2-b]-[1,4]oxazepin-3-yl)-4-(3,5-difluorophenyl)pyrimidine-2-carboxamide]
IC50: 13.9 nM

Cc1cc(-c2nc(C(=O)N[C@H]3COc4cc(Cl)cnc4N(C)C3=O)ncc2Cl)ccc1F [Example 100, (S)-5-chloro-N-(8-chloro-5-methyl-4-oxo-2,3,4,5-tetrahydropyrido[3,2-b]-[1,4]oxazepin-3-yl)-4-(4-fluoro-3-methylphenyl)pyrimidine-2-carboxamide]
IC50: 12.2 nM

CN1C(=O)[C@@H](NC(=O)c2ncc(Cl)c(-c3ccccc3Cl)n2)COc2cc(Cl)cnc21 [Example 101, (S)-5-chloro-N-(8-chloro-5-methyl-4-oxo-2,3,4,5-tetrahydropyrido[3,2-b]-[1,4]oxazepin-3-yl)-4-(2-chlorophenyl)pyrimidine-2-carboxamide]
IC50: 14.7 nM

CN1C(=O)[C@@H](NC(=O)c2ncc(Cl)c(-c3cccc(Cl)c3)n2)COc2cc(Cl)cnc21 [Example 102, (S)-5-chloro-N-(8-chloro-5-methyl-4-oxo-2,3,4,5-tetrahydropyrido[3,2-b]-[1,4]oxazepin-3-yl)-4-(3-chlorophenyl)pyrimidine-2-carboxamide]
IC50: 12.7 nM

CN1C(=O)[C@@H](NC(=O)c2ncc(Cl)c(-c3ccc(Cl)cc3)n2)COc2cc(Cl)cnc21 [Example 103, (S)-5-chloro-N-(8-chloro-5-methyl-4-oxo-2,3,4,5-tetrahydropyrido[3,2-b]-[1,4]oxazepin-3-yl)-4-(4-chlorophenyl)pyrimidine-2-carboxamide]
IC50: 6.69 nM

CN1C(=O)[C@@H](NC(=O)c2ncc(Cl)c(-c3cccc(C#N)c3)n2)COc2cc(Cl)cnc21 [Example 104, (S)-5-chloro-N-(8-chloro-5-methyl-4-oxo-2,3,4,5-tetrahydropyrido[3,2-b]-[1,4]oxazepin-3-yl)-4-(3-cyanophenyl)pyrimidine-2-carboxamide]
IC50: 32.1 nM

CN1C(=O)[C@@H](NC(=O)c2ncc(Cl)c(-c3ccc(C#N)cc3)n2)COc2cc(Cl)cnc21 [Example 105, (S)-5-chloro-N-(8-chloro-5-methyl-4-oxo-2,3,4,5-tetrahydropyrido[3,2-b]-[1,4]oxazepin-3-yl)-4-(4-cyanophenyl)pyrimidine-2-carboxamide]
IC50: 19.6 nM

Cc1cccc(-c2nc(C(=O)N[C@H]3COc4cc(Cl)cnc4N(C)C3=O)ncc2Cl)c1 [Example 106, (S)-5-chloro-N-(8-chloro-5-methyl-4-oxo-2,3,4,5-tetrahydropyrido[3,2-b]-[1,4]oxazepin-3-yl)-4-(m-tolyl)-pyrimidine-2-carboxamide]
IC50: 14.8 nM

Cc1ccn(-c2nc(C(=O)N[C@H]3COc4cc(Cl)cnc4N(C)C3=O)ncc2Cl)n1 [Example 107, (S)-5-chloro-N-(8-chloro-5-methyl-4-oxo-2,3,4,5-tetrahydropyrido [3,2-b]-[1,4]oxazepin-3-yl)-4-(3-methyl-1H-pyrazol-1-yl)-pyrimidine-2-carboxamide]
IC50: 606 nM

CN1C(=O)[C@@H](NC(=O)c2ncc(Cl)c(-c3ncccc3F)n2)COc2cc(Cl)cnc21 [Example 108, (S)-5-chloro-N-(8-chloro-5-methyl-4-oxo-2,3,4,5-tetrahydropyrido[3,2-b]-[1,4]oxazepin-3-yl)-4-(3-fluoropyridin-2-yl)pyrimidine-2-carboxamide]
IC50: 121 nM

CN1C(=O)[C@@H](NC(=O)c2ncc(Cl)c(-c3cncc(F)c3)n2)COc2cc(Cl)cnc21 [Example 109, (S)-5-chloro-N-(8-chloro-5-methyl-4-oxo-2,3,4,5-tetrahydropyrido[3,2-b]-[1,4]oxazepin-3-yl)-4-(5-fluoropyridin-3-yl)pyrimidine-2-carboxamide]
IC50: 59.2 nM
